Measured values: ChEMBL document CHEMBL6078622, “Enhancing outer membrane permeability of tetracycline antibiotics in P. aeruginosa using TOB-CIP conjugates” (RSC Med Chem, 2024)

How the values were obtained:
Pseudomonas aeruginosa [1] = assay: Synergistic antibacterial activity against Pseudomonas aeruginosa PAO1 assessed as fold change in tigecycline MIC by checkerboard analysis relative to Tigecycline alone; assay type: functional
Pseudomonas aeruginosa [2] = assay: Antibacterial activity against Pseudomonas aeruginosa PA262 assessed as inhibition of visible bacterial growth by CLSI based broth-microdilution method; assay type: functional
Pseudomonas aeruginosa [3] = assay: Synergistic antibacterial activity against Pseudomonas aeruginosa PA259 in presence of minocycline by checkerboard assay; assay type: functional
Pseudomonas aeruginosa [4] = assay: Synergistic antibacterial activity against Pseudomonas aeruginosa PA101243 in presence of eravacycline by checkerboard assay; assay type: functional
Pseudomonas aeruginosa [5] = assay: Synergistic antibacterial activity against Pseudomonas aeruginosa PA200 in presence of minocycline by checkerboard assay; assay type: functional
Pseudomonas aeruginosa [6] = assay: Antibacterial activity against Pseudomonas aeruginosa PA259 assessed as minocycline MIC by CLSI based broth-microdilution method; assay type: functional
Pseudomonas aeruginosa [7] = assay: Antibacterial activity against Pseudomonas aeruginosa PA264 assessed as tigecycline MIC by CLSI based broth-microdilution method; assay type: functional
Pseudomonas aeruginosa [8] = assay: Antibacterial activity against Pseudomonas aeruginosa PA264 assessed as eravacycline MIC by CLSI based broth-microdilution method; assay type: functional
Pseudomonas aeruginosa [9] = assay: Antibacterial activity against Pseudomonas aeruginosa PA101243 assessed as eravacycline MIC by CLSI based broth-microdilution method; assay type: functional
Pseudomonas aeruginosa [10] = assay: Antibacterial activity against Pseudomonas aeruginosa PA095 assessed as doxycycline MIC by CLSI based broth-microdilution method; assay type: functional
Pseudomonas aeruginosa [11] = assay: Synergistic antibacterial activity against Pseudomonas aeruginosa PA114228 assessed as fractional inhibitory concentration index in presence of doxycycline by checkerboard assay; assay type: functional
Pseudomonas aeruginosa [12] = assay: Synergistic antibacterial activity against Pseudomonas aeruginosa PA100036 assessed as fold change in tigecycline MIC by CLSI based broth-microdilution method relative to tigecycline alone; assay type: functional
Pseudomonas aeruginosa [13] = assay: Synergistic antibacterial activity against Pseudomonas aeruginosa PA100036 assessed as fold change in eravacycline MIC by CLSI based broth-microdilution method relative to eravacycline alone; assay type: functional
Pseudomonas aeruginosa [14] = assay: Synergistic antibacterial activity against Pseudomonas aeruginosa PA101243 assessed as fold change in minocycline MIC by CLSI based broth-microdilution method relative to minocycline alone; assay type: functional
Pseudomonas aeruginosa [15] = assay: Synergistic antibacterial activity against Pseudomonas aeruginosa PA101243 assessed as fold change in doxycycline MIC by CLSI based broth-microdilution method relative to doxycycline alone; assay type: functional
HEK293 = assay: Cytotoxicity against HEK293 cells assessed as reduction in cell viability at 162 uM; assay type: toxicity, cell-based; details: human, hek293, 162 µM

- MIC (Pseudomonas aeruginosa [2]): > 128 µg/mL
- MIC (Pseudomonas aeruginosa [3]): 8 µg/mL
- MIC (Pseudomonas aeruginosa [4]): 8 µg/mL
- MIC (Pseudomonas aeruginosa [5]): 8 µg/mL
- MIC (Pseudomonas aeruginosa [6]): 0.25 µg/mL
- MIC (Pseudomonas aeruginosa [7]): 0.5 µg/mL
- MIC (Pseudomonas aeruginosa [8]): 0.125 µg/mL
- MIC (Pseudomonas aeruginosa [9]): 2 µg/mL
- MIC (Pseudomonas aeruginosa [10]): 4 µg/mL
SMILES: Cl.Cl.Cl.Cl.Cl.Cl.NC[C@H]1O[C@H](O[C@H]2[C@H](OCCCCCCCCCCCCNC(=O)c3cn(C4CC4)c4cc(N5CCNCC5)c(F)cc4c3=O)[C@@H](O[C@H]3O[C@H](CO)[C@@H](O)[C@H](N)[C@H]3O)[C@H](N)C[C@@H]2N)[C@H](N)C[C@@H]1O
- fold change (FC) (Pseudomonas aeruginosa [1]): 64
- fractional inhibitory concentration index (FICI) (Pseudomonas aeruginosa [11]): 0.004
- fold change (FC) (Pseudomonas aeruginosa [12]): 64
- fold change (FC) (Pseudomonas aeruginosa [13]): 256
- fold change (FC) (Pseudomonas aeruginosa [14]): 4
- fold change (FC) (Pseudomonas aeruginosa [15]): 2
- Activity (HEK293): 60%
